Source: patent publication US20260308149A1, “NOVEL CARBOXAMIDE DERIVATIVES” (ANGELINI PHARMA S.P.A., priority 2023, published 2026)

What was measured:
[1] = test system: Patient-derived motor neurons; conditions: ALS patient-derived motor neurons; Wainger et al., 2014; cited from earlier work
[2] = test system: preclinical models of tinnitus; conditions: Li, Choi and Tzounopoulos, 2013; cited from earlier work
ALS patients = conditions: clinical trials in ALS; Wainger et al., 2021; cited from earlier work
patients = conditions: MDD patients; Tan et al., 2018; cited from earlier work
[3] = test system: Dup15q patient-derived induced pluripotent cells; conditions: Fink et al., 2018; cited from earlier work
pain models = conditions: Korsgaard et al., 2005; Xu et al., 2010; Wu et al., 2017; cited from earlier work
peripheral neuropathy = conditions: preclinical; Nodera et al., 2011; cited from earlier work
spreading depression = conditions: Aiba and Noebels, 2021; cited from earlier work
human Kv7.2 = molecular target: T1, human Kv7.2 (Homo sapiens, UniProt O43526); test: activation (potentiation) of Kv7.2 current, SyncroPatch 384 electrophysiology in CHO cells stably expressing human Kv7.2; format: cell-based; conditions: human Kv7.2 in CHO cells; in presence of 5.6 μM zinc pyrithione; % activation relative to 30 μM ML-213
T1 construct: expressed in transfected cells
Summary of the method: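 CHO cells stably expressing human Kv7.2 were recorded by automated patch clamp, holding at −60 mV with steps to −30, 40 and −90 mV; current was read at the −90 mV step. Compounds were added after 5.6 μM zinc pyrithione pre-activation. % activation was normalised between 30 μM ML-213 (max) and TEA+XE-991 (leak), with EC50 from a logistic fit.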

T1 sequence (O43526 whole entry): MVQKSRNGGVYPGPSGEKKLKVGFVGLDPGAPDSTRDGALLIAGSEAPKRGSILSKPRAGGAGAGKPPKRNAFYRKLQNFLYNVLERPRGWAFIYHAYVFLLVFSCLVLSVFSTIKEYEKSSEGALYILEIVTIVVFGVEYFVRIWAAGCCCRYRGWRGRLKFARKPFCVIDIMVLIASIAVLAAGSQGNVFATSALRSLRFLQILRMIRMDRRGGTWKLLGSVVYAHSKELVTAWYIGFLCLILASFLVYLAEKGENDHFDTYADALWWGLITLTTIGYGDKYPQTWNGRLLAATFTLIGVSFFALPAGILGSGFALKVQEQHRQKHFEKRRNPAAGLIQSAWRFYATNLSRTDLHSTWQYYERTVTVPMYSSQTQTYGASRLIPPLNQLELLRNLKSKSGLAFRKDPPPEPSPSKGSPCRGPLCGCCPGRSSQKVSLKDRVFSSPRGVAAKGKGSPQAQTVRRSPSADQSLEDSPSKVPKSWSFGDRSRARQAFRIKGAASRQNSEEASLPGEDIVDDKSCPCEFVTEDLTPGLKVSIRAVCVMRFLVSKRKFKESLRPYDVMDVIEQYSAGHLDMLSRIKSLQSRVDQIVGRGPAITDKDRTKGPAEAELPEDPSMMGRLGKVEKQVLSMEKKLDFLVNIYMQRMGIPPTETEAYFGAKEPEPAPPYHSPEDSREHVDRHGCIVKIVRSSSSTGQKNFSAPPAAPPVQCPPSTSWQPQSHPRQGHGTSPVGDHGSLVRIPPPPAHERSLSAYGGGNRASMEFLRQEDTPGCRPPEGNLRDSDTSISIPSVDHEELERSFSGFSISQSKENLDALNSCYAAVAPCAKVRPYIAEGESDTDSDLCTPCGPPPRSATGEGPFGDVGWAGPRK

Compound | EC50 (human Kv7.2) [µM] | other results
CCOC(=O)Nc1ccc(NCc2ccc(F)cc2)cc1N [Retigabine] |  | rescue of membrane hyperexcitability phenotype [1]: rescues the phenotype; prevention of the development of tinnitus [2]: prevents the development of tinnitus in preclinical models; efficacy on functional biomarkers of ALS (ALS patients): showed efficacy on functional biomarkers of ALS; antidepressant efficacy (patients): showed antidepressant efficacy in patients; reduction in depressive symptoms (patients): significant reduction in depressive symptoms; effect on phenotype [3]: partially corrects their phenotype; efficacy in preclinical pain models (pain models): some efficacy in preclinical pain models; protection against peripheral neuropathy (peripheral neuropathy): protects against peripheral neuropathy; efficacy in controlling spreading depression (spreading depression): shows efficacy in controlling spreading depression
COc1ccc(CCNC(=O)NCC(C)(OC)c2cccc(Cl)c2)cc1 (stereo not shown) [Example 34, 1-[2-(3-chlorophenyl)-2-methoxy-propyl]-3-[2-(4-methoxyphenyl)ethyl]urea] | 3.94 | 
CCc1cc(C2(CNC(=O)[C@H]3C[C@@H]3c3ccccc3)CCO2)ccn1 (stereo partly drawn) [Example 121, (1S,2S)—N-[[2-(2-ethyl-4-pyridyl)oxetan-2-yl]methyl]-2-phenyl-cyclopropanecarboxamide] | 2.51 | 
COC(C)(CNC(=O)NCC1CC1)c1cccc(Cl)c1 (stereo not shown) [Example 23, 1-[2-(3-chlorophenyl)-2-methoxy-propyl]-3-(cyclopropylmethyl)urea] | 8.2 | 
CC(C)OC(CNC(=O)NC1CCCC1)c1cccc(Br)c1 (stereo not shown) [Example 24, 1-[2-(3-bromophenyl)-2-isopropoxy-ethyl]-3-cyclopentyl-urea] | 2.92 | 
N#Cc1cccc([C@]2(CNC(=O)C(F)CC3CCCC3)CCO2)c1 (stereo partly drawn) [Example 103, N-[[(2S)-2-(3-cyanophenyl)oxetan-2-yl]methyl]-3-cyclopentyl-2-fluoro-propanamide] | 6.14 | 
O=C(NCC1(c2cccc(OC(F)F)n2)CCO1)[C@H]1C[C@@H]1C(F)(F)F (stereo partly drawn) [Example 130, (1S,2S)—N-[[2-[6-(difluoromethoxy)-2-pyridyl]oxetan-2-yl]methyl]-2-(trifluoromethyl)cyclopropanecarboxamide] | 0.68 | 
N#Cc1cccc([C@]2(CNC(=O)[C@H]3C[C@@H]3C3CCCC3)CCO2)c1 [Example 112, (1S,2R)—N-[[(2S)-2-(3-cyanophenyl)oxetan-2-yl]methyl]-2-cyclopentyl-cyclopropanecarboxamide] | 0.09 | 
O=C(NCC1(c2cccc(Cl)n2)CCO1)[C@H]1C[C@@H]1c1ccccc1 (stereo partly drawn) [Example 76, (1S,2S)—N-[[2-(6-chloro-2-pyridyl)oxetan-2-yl]methyl]-2-phenyl-cyclopropanecarboxamide] | 1.74 | 
N#Cc1cccc(C2(CNC(=O)[C@H]3C[C@@H]3c3ccccc3)OCC2(F)F)c1 (stereo partly drawn) [Example 87, (1S,2S)—N-[[2-(3-cyanophenyl)-3,3-difluoro-oxetan-2-yl]methyl]-2-phenyl-cyclopropanecarboxamide] | 0.06 | 
O=C(NC[C@]1(c2cccc(Cl)c2)OCC1(F)F)[C@H]1C[C@@H]1c1ccccc1 (stereo in doubt) [Example 42, (1S,2S)-N-[[(2S)-2-(3-chlorophenyl)-3,3-difluoro-oxetan-2-yl]methyl]-2-phenyl-cyclopropanecarboxamide] | 0.63 | 
CC(F)(F)[C@H]1C[C@@H]1C(=O)NC[C@@]1(c2cccc(C#N)c2)CCO1 (mixture of isomers) [Example 113, (1SR,2SR)—N-[[(2S)-2-(3-cyanophenyl)oxetan-2-yl]methyl]-2-(1,1-difluoroethyl)cyclopropanecarboxamide] | 2.18 | 
N#Cc1cccc([C@]2(CNC(=O)C3CCC34CCC4)CCO2)c1 (stereo partly drawn) [Example 100, N-[[(2S)-2-(3-cyanophenyl)oxetan-2-yl]methyl]spiro[3.3]heptane-3-carboxamide] | 9.76 | 
N#Cc1cccc([C@]2(CNC(=O)C3CCCC34CCC4)CCO2)c1 (stereo partly drawn) [Example 104, N-[[(2S)-2-(3-cyanophenyl)oxetan-2-yl]methyl]spiro[3.4]octane-8-carboxamide] | 0.51 | 
